Assay [1] addresses T1, Melanocortin receptor 4 (Homo sapiens, UniProt P32245). Nature of the assay: Effective concentration for intracellular cAMP accumulation in L-cells expressing Melanocortin 4 receptor. It counts as functional, cell-based. For orientation: Changes in cAMP serve as a functional read-out for many G protein-coupled receptors.
The next assay has as its target Melanocortin receptor 5 (Homo sapiens, UniProt P33032). The experiment in a line: Inhibitory concentration against human Melanocortin 5 receptor (hMC5R).
For assay [2], the target named is T2, Melanocyte-stimulating hormone receptor (Homo sapiens, UniProt Q01726). The experiment in a line: Effective concentration for intracellular cAMP accumulation in L-cells expressing Melanocortin 1 receptor. It counts as functional, cell-based.
The target in assay [3] is T1, Melanocortin receptor 4. Nature of the assay: Inhibitory concentration against human Melanocortin 4 receptor (hMC4R).
Assay [4] addresses T2, Melanocyte-stimulating hormone receptor. The experiment in a line: Inhibitory concentration against human Melanocortin 1 receptor (hMC1R).
Assay [5] addresses T3, Melanocortin receptor 3 (Homo sapiens, UniProt P41968). Nature of the assay: Inhibitory concentration against human Melanocortin 3 receptor (hMC3R).
Assay [6] deals with T3, Melanocortin receptor 3. The experiment in a line: Effective concentration that was able to generate 50% maximal intracellular cAMP in L-cells transfected with Melanocortin 3 receptor. In kind it is functional, cell-based.

EC50 and IC50 data for five molecules are collected here from ChEMBL document CHEMBL1130048, “Biological and conformational examination of stereochemical modifications using the template melanotropin peptide, Ac-Nle-c[Asp-His-Phe-Arg-Trp-Ala-Lys]-NH2, on human melanocortin receptors” (J Med Chem, 1997).

For orientation: EC50 means the concentration that produces a half-maximal response. The low end stands for a more potent agent, the high end for a less potent agent. For orientation: IC50 means the point on the concentration scale where inhibition reaches its midpoint. A higher IC50 goes with weaker potency in that assay.

T2 sequence (Q01726 whole entry): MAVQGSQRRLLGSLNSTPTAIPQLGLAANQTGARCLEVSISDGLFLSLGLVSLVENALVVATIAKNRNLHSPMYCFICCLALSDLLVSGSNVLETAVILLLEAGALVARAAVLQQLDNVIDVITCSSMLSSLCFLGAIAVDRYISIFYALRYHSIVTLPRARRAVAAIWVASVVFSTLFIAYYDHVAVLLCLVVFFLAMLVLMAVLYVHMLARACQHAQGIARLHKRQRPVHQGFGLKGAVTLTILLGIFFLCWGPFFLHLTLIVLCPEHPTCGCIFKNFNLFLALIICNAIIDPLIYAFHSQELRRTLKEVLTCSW
T1 sequence (P32245 whole entry): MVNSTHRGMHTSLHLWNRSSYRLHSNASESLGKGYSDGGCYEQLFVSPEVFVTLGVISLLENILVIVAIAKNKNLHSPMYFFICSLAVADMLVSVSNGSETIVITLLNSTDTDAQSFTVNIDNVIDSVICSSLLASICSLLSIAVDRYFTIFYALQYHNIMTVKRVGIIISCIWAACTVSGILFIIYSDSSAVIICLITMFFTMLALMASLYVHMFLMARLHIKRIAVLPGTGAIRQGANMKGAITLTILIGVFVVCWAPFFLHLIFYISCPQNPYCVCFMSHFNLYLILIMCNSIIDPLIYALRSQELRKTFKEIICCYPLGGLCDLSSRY
T3 sequence (P41968 whole entry): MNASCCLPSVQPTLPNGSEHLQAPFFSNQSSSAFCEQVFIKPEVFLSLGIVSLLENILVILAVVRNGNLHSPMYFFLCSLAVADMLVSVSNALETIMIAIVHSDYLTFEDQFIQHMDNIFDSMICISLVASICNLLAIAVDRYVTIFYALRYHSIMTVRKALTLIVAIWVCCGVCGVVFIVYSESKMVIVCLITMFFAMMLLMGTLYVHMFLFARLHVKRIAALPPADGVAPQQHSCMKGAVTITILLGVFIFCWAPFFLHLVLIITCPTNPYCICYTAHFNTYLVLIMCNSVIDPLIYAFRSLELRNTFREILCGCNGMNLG
Chain of Melanocortin receptor 5 (P33032 whole entry): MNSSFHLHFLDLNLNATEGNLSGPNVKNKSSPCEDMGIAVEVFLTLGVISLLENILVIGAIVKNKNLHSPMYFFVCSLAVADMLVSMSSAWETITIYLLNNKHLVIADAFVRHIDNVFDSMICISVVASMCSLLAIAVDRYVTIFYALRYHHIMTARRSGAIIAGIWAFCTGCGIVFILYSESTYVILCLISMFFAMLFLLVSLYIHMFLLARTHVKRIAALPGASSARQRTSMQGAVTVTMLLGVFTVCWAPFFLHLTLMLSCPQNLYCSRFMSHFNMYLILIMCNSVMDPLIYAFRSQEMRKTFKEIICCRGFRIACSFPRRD

With `CC(=O)N[C@@H]1CC(=O)NCCCC[C@H](C(N)=O)NC(=O)[C@@H](C)NC(=O)[C@H](Cc2c[nH]c3ccccc23)NC(=O)[C@@H](CCCNC(=N)N)NC(=O)[C@H](Cc2ccccc2)NC(=O)[C@@H](Cc2cnc[nH]2)NC1=O`, the EC50 on Melanocortin receptor 4 [1] amounted to 2.92 nM; in assay [2], 13.4 nM; at Melanocortin receptor 3 [6], 88.5 nM. Besides, the IC50 on Melanocortin receptor 5 was over 1000 nM; against Melanocortin receptor 4 [3], 2.03 nM; in assay [4], 1.94 nM; on Melanocortin receptor 3 [5] it was 102 nM.

`CCCC[C@H](NC(C)=O)C(=O)N[C@@H]1CC(=O)NCCCC[C@@H](C(N)=O)NC(=O)[C@H](C)NC(=O)[C@@H](Cc2c[nH]c3ccccc23)NC(=O)[C@H](CCCNC(=N)N)NC(=O)[C@H](Cc2ccccc2)NC(=O)[C@H](Cc2cnc[nH]2)NC1=O` displayed an EC50 in assay [2] of 34.2 nM. Further, in assay [4], half-maximal inhibition (IC50) was put at 264 nM.

`CCCC[C@H](NC(C)=O)C(=O)N[C@H]1CC(=O)NCCCC[C@@H](C(N)=O)NC(=O)[C@H](C)NC(=O)C(Cc2c[nH]c3ccccc23)NC(=O)[C@H](CCCN=C(N)N)NC(=O)[C@@H](Cc2ccccc2)NC(=O)[C@H](Cc2c[nH]cn2)NC1=O` (single isomer, unassigned) showed an EC50 in assay [2] of 0.098 nM. In assay [4], this molecule registered an IC50 of 0.35 nM.

In the case of `CCCC[C@H](NC(C)=O)C(=O)N[C@H]1CC(=O)NCCCC[C@@H](C(N)=O)NC(=O)[C@H](C)NC(=O)C(Cc2c[nH]c3ccccc23)NC(=O)[C@H](CCCN=C(N)N)NC(=O)C(Cc2ccccc2)NC(=O)[C@H](Cc2c[nH]cn2)NC1=O` (single isomer, unassigned), in assay [2], the EC50 worked out at 2.61 nM. In addition, half-maximal inhibition in assay [4] (IC50) was put at 22.4 nM.

For the molecule `CCCC[C@H](NC(C)=O)C(=O)N[C@H]1CC(=O)NCCCC[C@@H](C(N)=O)NC(=O)[C@H](C)NC(=O)C(Cc2c[nH]c3ccccc23)NC(=O)[C@H](CCCN=C(N)N)NC(=O)[C@H](Cc2ccccc2)NC(=O)[C@H](Cc2c[nH]cn2)NC1=O` (single isomer, unassigned), the EC50 in assay [2] is 0.3 nM. This molecule also gave an IC50 in assay [4] of 0.91 nM.
